Results as given in the supplement of paper PMC4862054.

Tests used:
Settings in all cases: incubation time: 72 h
MDA-MB-468 [1] = experiment: drug sensitivity score (DSS), CellTiter-Blue viability (DSS (AUC-based score)); higher = stronger viability inhibition; extreme values may be limits of the assay
Experimental: (§1)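 DSRT with the CellTiter-Blue (resazurin reduction) viability readout, fluorescence 560/590 nm, 72 h incubation. Plates were normalised to DMSO and benzethonium chloride controls. DSS is computed from the area under the fitted dose-response curve (5 or 9 concentrations).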

CAL-120 = experiment: as above
Experimental: as §1

HCC1937 = experiment: as above
Experimental: as §1

CAL-85-1 [2] = experiment: as above
Experimental: as §1

SK-BR-3 = experiment: as above
Experimental: as §1

CAL-148 = experiment: as above
Experimental: as §1

HCC1599 = experiment: as above
Experimental: as §1

MDA-MB-436 = experiment: as above
Experimental: as §1

HCC1143 [3] = experiment: as above
Experimental: as §1

BT-549 = experiment: as above
Experimental: as §1

CAL-51 = experiment: as above
Experimental: as §1

DU-4475 = experiment: as above
Experimental: as §1

BT-474 = experiment: as above
Experimental: as §1

MDA-MB-453 [4] = experiment: as above
Experimental: as §1

Hs578T = experiment: as above
Experimental: as §1

MDA-MB-231 [5] = experiment: as above
Experimental: as §1

HDQ-P1 = experiment: as above
Experimental: as §1

MFM-223 = experiment: as above
Experimental: as §1

MDA-MB-468 [6] = experiment: normalised viability (% of control), CellTiter-Blue; higher = more viable cells (about 100 = DMSO control)
How it was run: (§2)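 384-well plates were pre-loaded with compound in 5 µl medium before 20 µl of breast cancer cell suspension was seeded. Following 72 h incubation, 2.5 µl CellTiter-Blue reagent was added for 2 h at 37 °C. Fluorescence was read at 560/590 nm and plates were normalised to vehicle (100) and a positive kill control (0), checked by Z'-factor. Normalised viability is reported at a single listed concentration of the series.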

CAL-85-1 [7] = experiment: as above
How it was run: as §2

HCC1143 [8] = experiment: as above
How it was run: as §2

MDA-MB-453 [9] = experiment: as above
How it was run: as §2

MDA-MB-231 [10] = experiment: as above
How it was run: as §2

C=CC(=O)N1CCC[C@@H](n2nc(-c3ccc(Oc4ccccc4)cc3)c3c(N)ncnc32)C1
Settings	drug sensitivity score
BT-474	12.7
BT-549	0
CAL-51	0
CAL-85-1 [2]	5.07
CAL-120	0
CAL-148	0
DU-4475	0
HCC1143 [3]	0
HCC1599	0
HCC1937	0
HDQ-P1	1.18
Hs578T	0
MDA-MB-231 [5]	0
MDA-MB-436	0
MDA-MB-453 [4]	14.8
MDA-MB-468 [1]	3.83
MFM-223	0
SK-BR-3	18.7

normalised viability [%]
Settings	0.3 nM	1 nM	3 nM	10 nM	100 nM	1000 nM
CAL-85-1 [7]	87.8	–	84.6	96.9	–	–
HCC1143 [8]	–	76	–	–	79	81.8
MDA-MB-231 [10]	–	102	–	–	101	111
MDA-MB-453 [9]	112	–	92.4	77.3	–	–
MDA-MB-468 [6]	–	99.9	–	–	78.3	69.3

CC(=O)Nc1cccc(-n2c(=O)n(C3CC3)c(=O)c3c(Nc4ccc(I)cc4F)n(C)c(=O)c(C)c32)c1
Settings	drug sensitivity score
BT-474	0
BT-549	0
CAL-51	7.72
CAL-85-1 [2]	12.1
CAL-120	8.88
CAL-148	0
DU-4475	39.6
HCC1143 [3]	9.72
HCC1599	8.87
HCC1937	0
HDQ-P1	12.7
Hs578T	0
MDA-MB-231 [5]	21.7
MDA-MB-436	0
MDA-MB-453 [4]	6.65
MDA-MB-468 [1]	2.67
MFM-223	0
SK-BR-3	0

normalised viability [%]
Settings	0.075 nM	0.25 nM	0.75 nM	2.5 nM	25 nM	250 nM
CAL-85-1 [7]	102	–	93.6	97	–	–
HCC1143 [8]	–	124	–	–	71	64.6
MDA-MB-231 [10]	–	101	–	–	39.6	38.7
MDA-MB-453 [9]	107	–	113	128	–	–
MDA-MB-468 [6]	–	110	–	–	92.6	74.7

CCc1cncnc1N1CCN(Cc2nc3ccc(C(F)(F)F)cc3[nH]2)CC1
Settings	drug sensitivity score
BT-474	0
BT-549	0
CAL-51	0
CAL-85-1 [2]	0
CAL-120	0
CAL-148	0
DU-4475	0
HCC1143 [3]	0
HCC1599	0
HCC1937	0
HDQ-P1	0
Hs578T	0
MDA-MB-231 [5]	0
MDA-MB-436	0
MDA-MB-453 [4]	0
MDA-MB-468 [1]	0
MFM-223	0
SK-BR-3	0

normalised viability [%]
Settings	3 nM	10 nM	30 nM	100 nM	1000 nM	10000 nM
CAL-85-1 [7]	102	–	97.4	101	–	–
HCC1143 [8]	–	103	–	–	106	109
MDA-MB-231 [10]	–	96.9	–	–	98.2	106
MDA-MB-453 [9]	101	–	110	103	–	–
MDA-MB-468 [6]	–	107	–	–	108	103

Cc1cnc(NC(=O)Nc2cc(Br)c(C)cc2OC[C@@H]2CNCCO2)cn1
Settings	drug sensitivity score
BT-474	0
BT-549	0
CAL-51	0
CAL-85-1 [2]	0
CAL-120	0
CAL-148	0
DU-4475	0
HCC1143 [3]	0
HCC1599	2.32
HCC1937	5.26
HDQ-P1	0
Hs578T	1.59
MDA-MB-231 [5]	0
MDA-MB-436	3.49
MDA-MB-453 [4]	0
MDA-MB-468 [1]	0
MFM-223	0
SK-BR-3	1.9

normalised viability [%]
Settings	0.3 nM	1 nM	3 nM	10 nM	100 nM	1000 nM
CAL-85-1 [7]	90.6	–	89.4	106	–	–
HCC1143 [8]	–	97.9	–	–	90	79.3
MDA-MB-231 [10]	–	106	–	–	103	94
MDA-MB-453 [9]	109	–	111	105	–	–
MDA-MB-468 [6]	–	106	–	–	110	56.6

NCCCNCCSP(=O)(O)O [Amifostine]
Settings	drug sensitivity score
BT-474	0
BT-549	0
CAL-51	0
CAL-85-1 [2]	0
CAL-120	0
CAL-148	0
DU-4475	0
HCC1143 [3]	0
HCC1599	3.86
HCC1937	0
HDQ-P1	0
Hs578T	0
MDA-MB-231 [5]	0
MDA-MB-436	0
MDA-MB-453 [4]	0
MDA-MB-468 [1]	0
MFM-223	0
SK-BR-3	0

normalised viability [%]
Settings	3 nM	10 nM	30 nM	100 nM	1000 nM	10000 nM
CAL-85-1 [7]	97.5	–	88	87.2	–	–
HCC1143 [8]	–	79.2	–	–	84	75.2
MDA-MB-231 [10]	–	86.7	–	–	101	86.5
MDA-MB-453 [9]	102	–	81	86.7	–	–
MDA-MB-468 [6]	–	102	–	–	93	91.3
